Experimental data taken from publication PMC6406907, “A H2AX–CARP-1 Interaction Regulates Apoptosis Signaling Following DNA Damage” (Cancers, 2019).

System: MDA-MB-468 cells
Assay: Comet assay (DNA damage), MDA-MB-468
Format: cell-based, human
Parameters: Tail Moment (Mean) / Olive Tail Moment (Mean): unit not given here
Conditions: for percentage of tail DNA and tail moment: 10 μM, 1, 3, 6, 12 h, MDA-MB-468; for Tail Moment (Mean) / Olive Tail Moment (Mean) / %Tail DNA (Mean): MDA-MB-468, 10 µM; for Tail Moment (Mean): control 0.031056; for Olive Tail Moment (Mean): control 0.286711; for %Tail DNA (Mean): control 2.39052, alkaline electrophoresis, Vista Green
Protocol: The DNA damage assay was performed using a comet assay kit 96-well plate (Cell Bio Labs, CA, USA) as per the manufacturer’s instructions. Briefly, the cell suspension was mixed with the low-melting agarose at 1:20 ratio and added to the pre-coated 96 well plate. The cells were then subjected to lysis for 1 h, followed by alkaline electrophoresis. The plate was then washed in 70% ethanol and Vista Green DNA dye was added. The comets were visualized in Zeiss LSM780 Confocal microscope. The images were processed using Zeiss ZEN lite software and the comet parameters were measured using Open comet software.
Adriamycin is well known to induce DNA damage. Given the critical role of CARP-1 in apoptotic signaling by Adriamycin and CFM compounds, and the fact that stress-activated protein kinases (SAPKs) p38 and JNKs are activated in apoptosis signaling by CFM-4.16 [6, 12, 13, 14, 15, 16, 17, 18], we next determined whether CFM-4.16 also provoked DNA damage. We treated MDA-MB-468 and HeLa cells with a 10 μM dose of Adriamycin or CFM-4.16 for 1, 3, 6, and 12 h, followed by assessment of damaged DNA by the comet assay as described in Section 2. The presence of comet-like tails that contain the fragmented cellular DNA is a well-known marker/indicator of apoptosis. We measured the comet parameters such as percentage tail DNA and mean tail moment. […] Of note is the fact that Adriamycin and related anthracyclines intercalate between DNA bases and trap topoisomerase II (TopoII) in the double-strand cleavage form, thus introducing double-strand breaks (DSBs) due to TopoII poisoning. It remains to be clarified whether CFM-4.16 also targets cellular DNA and/or the associated DNA repair complex protein(s) to introduce DNA strand breaks, or activates caspase-activated DNAses to breakdown cellular genomic DNA.
Figure 2 Adriamycin and CFM-4.16 induce DNA damage. Cells were treated with the noted dose of respective compound for indicated time periods. Mean values for percentage tail DNA content (A,C) and Olive tail moment (B,D) for respective cells from control and treatment periods for each compound were measured using software recommended by the manufacturer of the kit for measurement of DNA damage (Cell Bio Labs, CA, USA). The columns in each chart indicate average values for respective treatment condition; bars, SE; * p ≤ 0.05.
Table S1. Adriamycin and CFM-4.16 stimulate DNA Damage in a time-dependent manner. MDA-MB-468 and HeLa cells were with noted dose of respective compound for indicated time periods.
Mean values for % tail DNA, Tail moment, and Olive tail moment for respective cells from control and treatment periods for each compound were measured using software recommended by the manufacturer of the kit for measurement of DNA damage (Cell Bio Labs, San Diego, CA, USA). The p values for each of the parameter are indicated below the mean values in each column for the treatment time period with each compound for both the cell lines.
Adriamycin (10 µM) CFM-4.16 (10 µM)

`COc1cccc2c1C(=O)c1c(O)c3c(c(O)c1C2=O)C[C@@](O)(C(=O)CO)C[C@@H]3O[C@H]1C[C@H](N)[C@H](O)[C@H](C)O1` [Adriamycin, doxorubicin, reference compound] was tested, and the “percentage of tail DNA and tail moment” value was “significantly increased”, the “Tail Moment (Mean)” value (1 h) was 3.462 and the “Olive Tail Moment (Mean)” value (1 h) was 2.898. The “%Tail DNA (Mean)” value (1 h) was 18.75%, the “Tail Moment (Mean)” value (3 h) was 14.01 and the “Olive Tail Moment (Mean)” value (3 h) was 9.946. The “%Tail DNA (Mean)” value (3 h) was 25.75%, the “Tail Moment (Mean)” value (6 h) was 24.19 and the “Olive Tail Moment (Mean)” value (6 h) was 14.06. For the same molecule, the “%Tail DNA (Mean)” value (6 h) was 45.55%, the “Tail Moment (Mean)” value (12 h) was 43.07 and the “Olive Tail Moment (Mean)” value (12 h) was 20.46. For the same molecule, the “%Tail DNA (Mean)” value (12 h) was 63.02%.
In the case of `O=C1N(Cc2ccccc2Cl)c2ccccc2C12NN=C(c1cccc(Cl)c1)S2` (centres unmarked) [CFM-4.16], the “percentage of tail DNA and tail moment” value is reported as “significantly increased”, the “Tail Moment (Mean)” value (1 h) is reported as 0.1504 and the “Olive Tail Moment (Mean)” value (1 h) is reported as 0.7773. For the same molecule, the “%Tail DNA (Mean)” value (1 h) was 2.507%, the “Tail Moment (Mean)” value (3 h) was 7.45 and the “Olive Tail Moment (Mean)” value (3 h) was 4.594. For the same molecule, the “%Tail DNA (Mean)” value (3 h) was 17.24%, the “Tail Moment (Mean)” value (6 h) was 25.29 and the “Olive Tail Moment (Mean)” value (6 h) was 13.06. For the same molecule, the “%Tail DNA (Mean)” value (6 h) was 36.18%, the “Tail Moment (Mean)” value (12 h) was 45.02 and the “Olive Tail Moment (Mean)” value (12 h) was 24.23. The “%Tail DNA (Mean)” value (12 h) was 55.6%.
